Data reported in patent EP0463456A1, “Phosphorus-containing HMG-CoA reductase inhibitors, new intermediates and their use” (E.R. SQUIBB & SONS, INC., priority 1990, dated 1992).

Biological target: T1, freshly isolated rat hepatocyte suspensions (Rattus norvegicus, UniProt P51639)
T1 sequence (P51639 1-887): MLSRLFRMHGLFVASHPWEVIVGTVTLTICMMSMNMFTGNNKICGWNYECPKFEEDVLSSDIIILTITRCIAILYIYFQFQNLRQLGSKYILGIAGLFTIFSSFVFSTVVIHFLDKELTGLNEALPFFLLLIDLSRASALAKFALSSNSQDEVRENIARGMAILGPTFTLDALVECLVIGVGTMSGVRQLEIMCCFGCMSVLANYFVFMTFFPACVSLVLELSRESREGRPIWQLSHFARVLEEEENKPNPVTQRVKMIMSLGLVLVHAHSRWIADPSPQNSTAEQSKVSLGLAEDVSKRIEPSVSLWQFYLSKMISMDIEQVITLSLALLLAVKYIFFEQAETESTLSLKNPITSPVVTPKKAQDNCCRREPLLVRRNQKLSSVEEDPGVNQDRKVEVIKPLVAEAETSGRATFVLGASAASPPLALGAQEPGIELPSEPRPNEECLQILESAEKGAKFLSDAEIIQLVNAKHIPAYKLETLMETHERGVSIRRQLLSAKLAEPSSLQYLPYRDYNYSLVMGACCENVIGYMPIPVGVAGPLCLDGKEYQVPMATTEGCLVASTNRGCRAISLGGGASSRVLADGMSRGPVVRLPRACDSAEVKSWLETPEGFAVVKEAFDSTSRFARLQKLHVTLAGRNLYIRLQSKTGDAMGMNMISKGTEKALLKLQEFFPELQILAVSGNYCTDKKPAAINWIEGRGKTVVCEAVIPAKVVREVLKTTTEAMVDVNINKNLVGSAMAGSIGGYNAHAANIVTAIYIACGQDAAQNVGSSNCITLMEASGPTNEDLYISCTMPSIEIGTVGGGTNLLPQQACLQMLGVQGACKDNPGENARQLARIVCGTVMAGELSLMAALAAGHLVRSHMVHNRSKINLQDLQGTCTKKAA
Assay: Cholesterol Synthesis in Freshly Isolated Rat Hepatocytes (14C-acetate incorporation into cholesterol)
Format: cell-based
Conditions: inhibition of 14C-acetate incorporation into cholesterol; 2.0 hours at 37° C; read-out: Hepatocytes 150
Protocol: 2) Cholesterol Synthesis in Freshly Isolated Rat Hepatocytes […]
a. Isolation of Rat Hepatocytes
Sprague Dawley rats (180-220 grams) are anesthetized with Nembutol (50 mg/kg). The abdomen is opened and the first branch of the portal vein is tied closed. Heparin (100-200 units) is injected directly into the abdominal vena cava. A single closing suture is placed on the distal section of the portal vein, and the portal vein is canulated between the suture and the first branching vein. The liver is perfused at a rate of 20 ml/minute with prewarmed (37° C), oxygenated buffer A (HBSS without calcium or magnesium containing 0.5 mM EDTA) after severing the vena cava to allow drainage of the effluent. The liver is additionally perfused with 200 ml of prewarmed buffer B (HBSS containing 0.05% bacterial collagenase). […] Pelleted hepatocytes are washed once in Waymouth's medium, counted and assayed for viability by trypan blue exclusion. […]
Lipids are extracted essentially as described by Bligh, E. G. and W. J. Dyer, Can. […] Plates are scanned and counted using a BioScan automated scanning system. Radiolabel in the cholesterol peak (RF 0.28) is determined and expressed at total counts per peak and as a percent of the label in the total lipid extract. […]
Drug effects (% inhibition of cholesterol synthesis) are determined by comparing % of label in cholesterol for control and drug treated cultures. […]

Work on “(S)-4-[[[4-(4-Fluorophenyl)-1,2-bis(1-methylethyl)-5-phenyl-1H-pyrrol-3-yl]-ethynyl]hydroxyphosphinyl]-3-hydroxybutanoic acid, dilithium salt [SQ 34,346]” yielded an IC50 of 78 nM.
